In PubChem BioAssay (NCI):
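Where inhibition never reached the appropriate level, the endpoint shown equals the highest concentration tested. Otherwise, values were interpolated linearly from a five-concentration, 48-hour dose response in 96-well plates. GI50 = concentration required for 50% inhibition of growth. The concentration for full growth arrest is given as TGI.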

Experiments:
Assay in all cases: NCI anticancer screen, dose series, 48 h
SNB-19 CNS = system: SNB-19 CNS
OVCAR-4 ovarian = system: OVCAR-4 ovarian
OVCAR-3 ovarian = system: OVCAR-3 ovarian
SK-MEL-2 melanoma = system: SK-MEL-2 melanoma
SW-620 colon = system: SW-620 colon
RPMI-8226 leukemia = system: RPMI-8226 leukemia
HOP-92 NSCLC = system: HOP-92 NSCLC
HCT-116 colon = system: HCT-116 colon
A498 renal = system: A498 renal
SK-MEL-28 melanoma = system: SK-MEL-28 melanoma
SK-MEL-5 melanoma = system: SK-MEL-5 melanoma
HCC-2998 colon = system: HCC-2998 colon
OVCAR-8 ovarian = system: OVCAR-8 ovarian
UACC-257 melanoma = system: UACC-257 melanoma
T-47D breast = system: T-47D breast
NCI-H522 lung = system: NCI-H522 lung
MOLT-4 leukemia = system: MOLT-4 leukemia
HT29 colon = system: HT29 colon
LOX IMVI melanoma = system: LOX IMVI melanoma
CCRF-CEM leukemia = system: CCRF-CEM leukemia
K-562 leukemia = system: K-562 leukemia
UACC-62 melanoma = system: UACC-62 melanoma
SF-268 CNS = system: SF-268 CNS
A549 NSCLC = system: A549 NSCLC
KM12 colon = system: KM12 colon
UO-31 renal = system: UO-31 renal
HS 578T breast = system: HS 578T breast
ACHN renal = system: ACHN renal
MDA-MB-231 breast = system: MDA-MB-231 breast
OVCAR-5 ovarian = system: OVCAR-5 ovarian
IGROV1 ovarian = system: IGROV1 ovarian
HCT-15 colon = system: HCT-15 colon
786-0 renal = system: 786-0 renal
SNB-75 CNS = system: SNB-75 CNS
TK-10 renal = system: TK-10 renal
MDA-MB-468 breast = system: MDA-MB-468 breast
MDA-MB-435 = system: MDA-MB-435
RXF 393 renal = system: RXF 393 renal
M14 melanoma = system: M14 melanoma
EKVX NSCLC = system: EKVX NSCLC
SN12C renal = system: SN12C renal
CAKI-1 renal = system: CAKI-1 renal
NCI-H23 lung = system: NCI-H23 lung
COLO 205 colon = system: COLO 205 colon
MCF7 breast = system: MCF7 breast
BT-549 breast = system: BT-549 breast
HOP-62 NSCLC = system: HOP-62 NSCLC
NCI-H226 lung = system: NCI-H226 lung
SK-OV-3 ovarian = system: SK-OV-3 ovarian
SF-539 CNS = system: SF-539 CNS
NCI-H460 lung = system: NCI-H460 lung
U251 CNS = system: U251 CNS
SR leukemia = system: SR leukemia
SF-295 CNS = system: SF-295 CNS
DU-145 prostate = system: DU-145 prostate
PC-3 prostate = system: PC-3 prostate
MALME-3M melanoma = system: MALME-3M melanoma

Question: What does the source list for O=c1oc2ccc(-c3ccc(F)cc3F)cc2c(=O)n1-c1ccc(F)c(Cl)c1?
Answer: GI50 (SNB-19 CNS): 3.79 µM; TGI (SNB-19 CNS): 23.8 µM; GI50 (OVCAR-4 ovarian): 3.24 µM; TGI (OVCAR-4 ovarian): 39.6 µM; GI50 (OVCAR-3 ovarian): 3.13 µM; TGI (OVCAR-3 ovarian): 11.9 µM; GI50 (SK-MEL-2 melanoma): 2.09 µM; TGI (SK-MEL-2 melanoma): 4.56 µM; GI50 (SW-620 colon): 3.43 µM; TGI (SW-620 colon): 13 µM; GI50 (RPMI-8226 leukemia): 1.62 µM; TGI (RPMI-8226 leukemia): 6.62 µM; GI50 (HOP-92 NSCLC): 0.808 µM; TGI (HOP-92 NSCLC): 4.78 µM; GI50 (HCT-116 colon): 3.01 µM; TGI (HCT-116 colon): 10.1 µM; GI50 (A498 renal): 2.25 µM; TGI (A498 renal): 6.36 µM; GI50 (SK-MEL-28 melanoma): 3.29 µM; TGI (SK-MEL-28 melanoma): 12.7 µM; GI50 (SK-MEL-5 melanoma): 1.46 µM; TGI (SK-MEL-5 melanoma): 3.03 µM; GI50 (HCC-2998 colon): 3.42 µM; TGI (HCC-2998 colon): 12.4 µM; GI50 (OVCAR-8 ovarian): 3.55 µM; TGI (OVCAR-8 ovarian): 25.4 µM; GI50 (UACC-257 melanoma): 2.07 µM; TGI (UACC-257 melanoma): 6.51 µM; GI50 (T-47D breast): 2.28 µM; TGI (T-47D breast): 6.71 µM; GI50 (NCI-H522 lung): 1.85 µM; TGI (NCI-H522 lung): 6.39 µM; GI50 (MOLT-4 leukemia): 3.83 µM; TGI (MOLT-4 leukemia): 45.1 µM; GI50 (HT29 colon): 9.51 µM; TGI (HT29 colon): 27.3 µM; GI50 (LOX IMVI melanoma): 3.69 µM; TGI (LOX IMVI melanoma): 12.2 µM; GI50 (CCRF-CEM leukemia): 3.69 µM; TGI (CCRF-CEM leukemia): 35.4 µM; GI50 (K-562 leukemia): 2.12 µM; TGI (K-562 leukemia): > 100 µM; GI50 (UACC-62 melanoma): 1.88 µM; TGI (UACC-62 melanoma): 5.01 µM; GI50 (SF-268 CNS): 2.69 µM; TGI (SF-268 CNS): 11.6 µM; GI50 (A549 NSCLC): 2.87 µM; TGI (A549 NSCLC): 15 µM; GI50 (KM12 colon): 2.97 µM; TGI (KM12 colon): 9.62 µM; GI50 (UO-31 renal): 2.4 µM; TGI (UO-31 renal): 9.98 µM; GI50 (HS 578T breast): 2.42 µM; TGI (HS 578T breast): 7.45 µM; GI50 (ACHN renal): 3.06 µM; TGI (ACHN renal): 10.1 µM; GI50 (MDA-MB-231 breast): 1.37 µM; TGI (MDA-MB-231 breast): 3.77 µM; GI50 (OVCAR-5 ovarian): 3.68 µM; TGI (OVCAR-5 ovarian): 20.6 µM; GI50 (IGROV1 ovarian): 3.49 µM; TGI (IGROV1 ovarian): 17.4 µM; GI50 (HCT-15 colon): 3.17 µM; TGI (HCT-15 colon): 14.9 µM; GI50 (786-0 renal): 2.38 µM; TGI (786-0 renal): 7.2 µM; GI50 (SNB-75 CNS): 1.59 µM; TGI (SNB-75 CNS): 5.77 µM; GI50 (TK-10 renal): 3.11 µM; TGI (TK-10 renal): 9.19 µM; GI50 (MDA-MB-468 breast): 2.25 µM; TGI (MDA-MB-468 breast): 5.84 µM; GI50 (MDA-MB-435): 2.58 µM; TGI (MDA-MB-435): 7.95 µM; GI50 (RXF 393 renal): 1.77 µM; TGI (RXF 393 renal): 5.67 µM; GI50 (M14 melanoma): 3.28 µM; TGI (M14 melanoma): 11.1 µM; GI50 (EKVX NSCLC): 3 µM; TGI (EKVX NSCLC): 21.3 µM; GI50 (SN12C renal): 2.16 µM; TGI (SN12C renal): 8.67 µM; GI50 (CAKI-1 renal): 1.72 µM; TGI (CAKI-1 renal): 5.11 µM; GI50 (NCI-H23 lung): 2.21 µM; TGI (NCI-H23 lung): 6.45 µM; GI50 (COLO 205 colon): 12.3 µM; TGI (COLO 205 colon): 26.2 µM; GI50 (MCF7 breast): 3.27 µM; TGI (MCF7 breast): 56.9 µM; GI50 (BT-549 breast): 1.8 µM; TGI (BT-549 breast): 4.14 µM; GI50 (HOP-62 NSCLC): 2.38 µM; TGI (HOP-62 NSCLC): 6.66 µM; GI50 (NCI-H226 lung): 1.98 µM; TGI (NCI-H226 lung): 7.01 µM; GI50 (SK-OV-3 ovarian): 2.41 µM; TGI (SK-OV-3 ovarian): 6.33 µM; GI50 (SF-539 CNS): 3.16 µM; TGI (SF-539 CNS): 10.4 µM; GI50 (NCI-H460 lung): 2.93 µM; TGI (NCI-H460 lung): 9.93 µM; GI50 (U251 CNS): 2.9 µM; TGI (U251 CNS): 11.7 µM; GI50 (SR leukemia): 2.96 µM; TGI (SR leukemia): 20.5 µM; GI50 (SF-295 CNS): 2.68 µM; TGI (SF-295 CNS): 7.72 µM; GI50 (DU-145 prostate): 4.12 µM; TGI (DU-145 prostate): 25.3 µM; GI50 (PC-3 prostate): 3.18 µM; TGI (PC-3 prostate): 13.7 µM; GI50 (MALME-3M melanoma): 2.03 µM; TGI (MALME-3M melanoma): 5.65 µM
